Measured values as given in patent publication US20030083228A1, “Treatments for female sexual dysfunction and methods for identifying compounds useful for treating female sexual dysfunction” (priority 2001, published 2003).

Experiments:
melanocortin-4 receptors = melanocortin-4 receptors (Homo sapiens, UniProt P32245); assay: [125I]AGRP competition binding assay; settings: particularly melanocortin-4 receptors
Source text: (§1) The first radioligand binding assay is an [^125I]AGRP competition binding assay. Compounds that attenuate binding of [^125I]AGRP or AGRP would be detected in this assay. It is noted that compounds can attenuate the binding of AGRP to melanocortin 3 and/or 4 receptors by binding to melanocortin 3 and/or 4 receptors or by binding to AGRP itself. The second radioligand binding assay is an assay using radiolabeled melanocortin ligands, for example, [^125I]norleucine D-phenylalanine melanocyte stimulating hormone ([^125I]NDP-MSH). Membranes prepared from cells expressing either melanocortin 3 or 4 receptors are used in the radioligand binding assays. The preparation and use of [^125I]AGRP and [^125I]NDP-MSH is well known in the art. See, for example, Dang et al., Molecular Endocrinology, 13, 148-155 (1999). In addition, the preparation and use of membranes from cells expressing either melanocortin 3 or 4 receptors are also well known in the art. See, Bass, et al., Molecular Pharmacology, 50, 709-715 (1996).
(§2) Specific Activity of [^125I]AGRP is 2200 Ci/mmole. The final concentration of [^125I]AGRP is 100 pM. Therefore, a 2 nM (20×) stock needs to be made in binding buffer. The concentration of [^125I]AGRP varies from 40-60 nM. [^125I]AGRP can be obtained from New England Nuclear, Boston, Mass.
(§3) The competition assay can be run using 96 well plates. […]

melanocortin receptors = assay: [125I]NDP-MSH competition binding assay
Source text: as §1
as §2, with “of [^125I]NDP-MSH” for “of [^125I]AGRP”, “is 250” for “is 100”, “a 5” for “a 2”, “nM. [^125I]NDP-MSH” for “nM. [^125I]AGRP”
as §3

MDA-MB-231 cells = assay: Inhibition of in vitro human breast tumor cell growth, ER-negative cell line; assay type: cell-based; settings: MDA-MB-231 (ER-negative), 6 days incubation, direct cell counts
Experimental: The in vitro antiproliferative effects of (−)-cis-6-phenyl-5-[4-(2-pyrrolidin-1-yl-ethoxy)-phenyl]-5,6,7,8-tetrahydro-naphthalene-2-ol (PPTN) were tested using two types of human breast cancer cell lines: first, MCF-7 cells, which contain ER as well as progesterone receptors (PgR), and second, MDA-MB-231 cells, which lack ER and PgR, and enable the determination of an effect that is independent of the ER mechanism. The effect of PPTN on the growth of these different cell lines was determined by incubation of the cells with various compound concentrations for 6 days.
The antiproliferative effects were then determined by direct cell counts. PPTN inhibited the growth of the ER-positive cell line MCF-7.

Sequence of melanocortin-4 receptors (P32245 whole entry): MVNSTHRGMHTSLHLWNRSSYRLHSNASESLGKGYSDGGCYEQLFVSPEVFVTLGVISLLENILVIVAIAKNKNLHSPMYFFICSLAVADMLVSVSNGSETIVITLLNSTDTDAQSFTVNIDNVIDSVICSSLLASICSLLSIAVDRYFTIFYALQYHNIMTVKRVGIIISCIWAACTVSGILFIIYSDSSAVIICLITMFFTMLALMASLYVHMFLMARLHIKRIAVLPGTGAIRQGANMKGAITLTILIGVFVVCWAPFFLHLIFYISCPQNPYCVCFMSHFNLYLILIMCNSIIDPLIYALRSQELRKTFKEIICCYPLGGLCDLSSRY

Row | binding of agouti-related protein to melanocortin receptors (melanocortin-4 receptors) | binding of α-melanocyte stimulating hormone to melanocortin receptors (melanocortin receptors) | Structure (SMILES) | effect on cell proliferation (MDA-MB-231 cells)
1 | attenuates | does not attenuate | O=[N+]([O-])c1ccc(N2C3c4ccccc4CCN3N(c3ccc([N+](=O)[O-])cc3)C3c4ccccc4CCN32)cc1 (stereo not drawn) [8,16-bis-(4-nitro-phenyl)-5,6,8,8a,13,14,16,16a-octahydro-[1,2,4,5]tetrazino[6,1-a;3,4-a′]diisoquinoline] | 
2 |  |  | Oc1ccc2c(c1)CC[C@H](c1ccccc1)[C@@H]2c1ccc(OCCN2CCCC2)cc1 [PPTN, (−)-cis-6-phenyl-5-[4-(2-pyrrolidin-1-yl-ethoxy)-phenyl]-5,6,7,8-tetrahydro-naphthalene-2-ol] | did not inhibit cell proliferation
